According to ChEMBL document CHEMBL1146693, “Design and SAR of thienopyrimidine and thienopyridine inhibitors of VEGFR-2 kinase activity” (Bioorg Med Chem Lett, 2004):
Where “and” joins values, the source holds several entries; their conditions need not be identical. Equal values may be shown once.

What follows are compounds tested against Epidermal growth factor receptor (Homo sapiens, UniProt P00533) (assay: Inhibitory activity against epidermal growth factor receptor).
Sequence of Epidermal growth factor receptor (P00533 whole entry): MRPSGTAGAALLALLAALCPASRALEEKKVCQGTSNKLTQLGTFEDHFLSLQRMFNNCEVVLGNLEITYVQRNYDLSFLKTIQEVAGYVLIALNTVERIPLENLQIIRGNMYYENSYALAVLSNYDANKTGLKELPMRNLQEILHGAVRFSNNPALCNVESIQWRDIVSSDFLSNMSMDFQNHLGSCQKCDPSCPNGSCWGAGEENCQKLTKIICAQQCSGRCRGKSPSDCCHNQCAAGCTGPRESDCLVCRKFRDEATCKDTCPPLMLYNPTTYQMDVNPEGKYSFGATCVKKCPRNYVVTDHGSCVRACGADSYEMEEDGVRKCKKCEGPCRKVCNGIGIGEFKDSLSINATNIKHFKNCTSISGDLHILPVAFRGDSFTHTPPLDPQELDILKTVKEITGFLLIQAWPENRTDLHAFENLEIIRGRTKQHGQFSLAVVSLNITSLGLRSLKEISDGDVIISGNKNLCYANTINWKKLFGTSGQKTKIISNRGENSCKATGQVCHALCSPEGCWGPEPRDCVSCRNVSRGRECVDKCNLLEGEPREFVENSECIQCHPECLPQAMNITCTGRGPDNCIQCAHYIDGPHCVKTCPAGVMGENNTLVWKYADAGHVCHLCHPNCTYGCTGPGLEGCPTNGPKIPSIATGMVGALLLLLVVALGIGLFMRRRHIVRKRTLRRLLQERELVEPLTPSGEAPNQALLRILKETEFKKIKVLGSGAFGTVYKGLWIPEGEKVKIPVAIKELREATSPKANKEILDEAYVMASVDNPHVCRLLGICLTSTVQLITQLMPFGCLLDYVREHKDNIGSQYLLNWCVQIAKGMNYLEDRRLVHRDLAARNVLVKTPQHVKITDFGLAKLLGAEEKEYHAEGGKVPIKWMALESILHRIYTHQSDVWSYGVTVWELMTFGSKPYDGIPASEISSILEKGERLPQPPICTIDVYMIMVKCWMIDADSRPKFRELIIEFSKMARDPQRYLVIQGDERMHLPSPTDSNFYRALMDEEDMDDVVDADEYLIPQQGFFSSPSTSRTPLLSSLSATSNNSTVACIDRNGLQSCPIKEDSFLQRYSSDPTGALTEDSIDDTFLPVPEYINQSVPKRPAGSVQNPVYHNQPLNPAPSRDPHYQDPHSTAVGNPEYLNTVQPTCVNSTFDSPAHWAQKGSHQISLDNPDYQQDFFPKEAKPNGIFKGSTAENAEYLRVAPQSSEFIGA
For `NC(=O)c1ccc(Nc2ncnc3cc(-c4ccccc4)sc23)cc1`, the IC50 was > 1000 nM.
Work on `Cc1cc2cc(Nc3ccnc4cc(-c5ccc(CN6CCOCC6)cc5)sc34)ccc2[nH]1` yielded an IC50 of 1250 nM.
With `NC(=O)C1CCN(Cc2ccc(-c3cc4ncnc(Nc5ccc6[nH]ccc6c5)c4s3)cc2)CC1` the IC50 was 7 nM.
Compound `c1ccc(-c2cc3ncnc(Nc4ccc5[nH]ncc5c4)c3s2)cc1` has an IC50 of 1600 nM.
In the case of `CN(CCO)Cc1ccc(-c2cc3nccc(Nc4ccc5[nH]ccc5c4)c3s2)cc1`, the IC50 is reported as 3 nM.
`CC(=O)NCCNCc1ccc(-c2cc3nccc(Nc4ccc5[nH]ccc5c4)c3s2)cc1` gave an IC50 of 2 nM.
`OCCNCc1ccc(-c2cc3nccc(Nc4ccc5[nH]ccc5c4)c3s2)cc1` showed an IC50 of 2 nM.
`CC(=O)NCCNCc1ccc(-c2cc3ncnc(Nc4ccc5[nH]ccc5c4)c3s2)cc1` gave an IC50 of 5 nM.
`NCc1ccc(-c2cc3ncnc(Nc4ccc5[nH]ccc5c4)c3s2)cc1` was tested, and the IC50 was 4 nM.
`OCCCNCc1ccc(-c2cc3nccc(Nc4ccc5[nH]ccc5c4)c3s2)cc1` was tested, and the IC50 was 9 nM.
Compound `NC(=O)C1CCN(Cc2ccc(-c3cc4nccc(Nc5ccc6[nH]ccc6c5)c4s3)cc2)CC1` has an IC50 of 1 nM.
`Cc1cc2cc(Nc3ccnc4cc(-c5ccc(CNCCCO)cc5)sc34)ccc2[nH]1` gave an IC50 of 500 nM.
With `CC(C)(CO)NCc1ccc(-c2cc3ncnc(Nc4ccc5[nH]ccc5c4)c3s2)cc1` the IC50 was 1 nM and 8 nM.
In the case of `Cc1cc2cc(Nc3ccnc4cc(-c5ccc(CN(C)CCO)cc5)sc34)ccc2[nH]1`, the IC50 is reported as 140 nM.
`c1ccc(CCCN(c2cc3ncnc(Nc4ccc5[nH]ccc5c4)c3s2)n2ccnc2)cc1` was tested, and the IC50 was 5 nM and 1 nM.
`c1cc(Nc2ccc3[nH]ccc3c2)c2sc(-c3ccc(CNCCN4CCNCC4)cc3)cc2n1` was tested, and the IC50 was 3 nM.
For `Cc1cc2cc(Nc3ccnc4cc(-c5ccc(CNCCOCCO)cc5)sc34)ccc2[nH]1`, the IC50 was 657 nM.
Work on `c1ccc(NCCN(c2cc3ncnc(Nc4ccc5[nH]ccc5c4)c3s2)n2cccc2)cc1` yielded an IC50 of 1 nM.
`OCc1ccc(-c2cc3ncnc(Nc4ccc5[nH]ccc5c4)c3s2)cc1` gave an IC50 of 1 nM.
For `c1nc(Nc2ccc3[nH]ccc3c2)c2sccc2n1`, the IC50 was 600 nM.
`Cc1c[nH]c2ccc(Nc3ncnc4cc(-c5ccccc5)sc34)cc12` gave an IC50 of 5 nM.
In the case of `Cc1cc2cc(Nc3ncnc4cc(-c5ccccc5)sc34)ccc2[nH]1`, the IC50 is reported as 100 nM.
Compound `Cc1cc2cc(Nc3ccnc4cc(-c5ccc(CNCCO)cc5)sc34)ccc2[nH]1` has an IC50 of 1000 nM.
For `c1csc(-c2cc3nccc(Nc4ccc5[nH]ccc5c4)c3s2)c1`, the IC50 was 1 nM.
`c1cc(Nc2ccc3[nH]ccc3c2)c2sc(-c3ccc(CN4CCOCC4)cc3)cc2n1` was tested, and the IC50 was 30 nM.
